Data set [1] concerns VEGF. In words: Immunohistochemistry of tumor sections, VEGF. The data set is classed as in vivo, rat. To be noted: i.p. 7 days; tumor-control 73.58%. The protocol:
Immunohistochemistry. For immunohistochemistry (IHC) analysis, 4 μm thick tissue sections were deparaffinized in xylene and hydrated by immersing in a series of graded ethanol concentration (100%, 95%, 75% and 50%). Endogenous peroxidase activity was blocked by incubating sections in 3% H2O2 solution prepared in methanol at room temperature for 10 minutes and were washed with PBS twice for 5 minutes each. Antigen retrieval was performed by immersing the slides in 300 ml of retrieval buffer (10 mM citrate buffer, pH 6.0) for one hour at 100° C. and were rinsed twice in PBS. Sections were then incubated with approximately 100 μl diluted primary antibodies of Ki67 (1:100 dilution, Elabscience, Wuhan, China) and Vascular Endothelial Growth Factor (VEGF) (1:100 dilution, Elabscience, Wuhan, China) for 30 minutes at room temperature. The slides were then washed twice with PBS and were then incubated with approximately 100 μl of diluted secondary antibody (Cat No. E-IR-R213, Elabscience, Wuhan, China) at room temperature for 30 minutes. Slides were then washed in PBS for 5 minutes, followed by incubation with approximately 100 μl diluted Horse Radish Peroxidase (HRP) conjugate for 30 minutes. […] The staining intensities were quantified using IHC Profiler, a plugin in ImageJ software, to determine the H-score (Histo score).

For data set [2], the system named is Ki67. In words: Immunohistochemistry of tumor sections, Ki67. The data set is classed as in vivo, rat. As to conditions: i.p. 7 days; tumor-control 36.73%.
Data set [3] concerns HEK293T (Human Embryonic Kidney) cells. In words: Trypan blue exclusion cytotoxicity on normal cell line. The data set is classed as cell-based. To be noted: treated at IC50 values determined in U87MG and C6, 24 hours. The protocol:
Cytotoxicity on a normal cell line.
Furthermore, to check for the cytotoxicity of the drugs, a trypan blue dye exclusion assay was performed on a normal cell line, HEK293T, using the IC50 values of each drug, individually and in combination, as determined in U87MG and C6 cells and shown in Table 2.

Data set [4] has as its system C6 rat glioma cell line. In words: MTT cell viability assay, C6. The data set is classed as cell-based. On the procedure:
(§1) Cell lines and culture conditions. A human glioma cell line, U87MG, a rat glioma cell line, C6, and normal HEK293T (Human Embryonic Kidney) cells were obtained from National Centre for Cell Science (NCCS), Pune, India. The cells were sub-cultured in Dulbecco's Modified Eagle's Medium (DMEM) supplemented with 10% FBS at 5% CO2 and 37° C. At 85% confluence, the cells were harvested using 0.25% trypsin and seeded in 25 cm^2 flasks, 96 well, and 6-well plates, according to the experiment being performed. The cells were allowed to attach 70% to the surface prior to treatment. A stock solution of all the drugs (10 mg/ml) was made in a vehicle and diluted to the required concentrations. Suspensions were aspirated 10 times before treatment. Cells treated with vehicle control were used as a control.
(§2) Cell viability assay. U87MG and C6 cells (5×10^3 cells/ml) were seeded in 96-well plates and exposed to different individual-drug treated groups with varying concentrations (0, 10, 40, 80, 120, and 160 μM) for a period of 24 hours, whereas HEK293T cells (5×10^3 cells/ml) were seeded at the inhibitory concentration (IC) at 50% of drugs, either alone or in combination. The individual-treated groups include Group I: untreated control glioma cells; Group II: TMZ-treated glioma cells; Group III: MET-treated glioma cells; and Group IV: EGCG-treated glioma cells.
(§3) After a 24 hour treatment period, the cells were allowed to react with MTT for 4 hours in dark at 37° C. At the end of the incubation period, the dark purple formazan crystals formed were solubilized with DMSO and the absorbance was measured spectrophotometrically at 595 nm (Molecular Devices Spectra-Max M5, USA). The experiments were repeated at least three times. To determine the cell viability, the percentage of viability was calculated as follows:
(§4) % viability=[(Optical density {OD} of treated cells−OD of Blank)/(OD of control−OD of blank)]×100.
(§5) Calculation of IC50 value. The IC50 of a drug was determined using y=m(x)+c equation (where: ‘y’ & ‘x’ are the respective coordinates of y & x-axis, ‘m’ is the slope and ‘c’ is the constant) derived from the trendlines of each scattered plots MMT assay. […] The IC50 and IC25 were also calculated for the dual combinations. The IC50 for the triple combination was calculated by keeping the IC25 of the dual-combination constant, and the third drug was used in varying concentrations (0, 10, 40, 80, 120, and 160 μM) (Table 1).
(§6) Combination index of drugs. According to the Chou-Talalay method, The statistical Combination Index (CI) of the drugs was performed according to the Chou-Talay method (Ma et al, Stem Cell Reports, 2017 9(6):1948-1960) to determine whether various drug combinations were synergistic, additive, or antagonistic, as shown in Table 1. This was performed for Groups V-IX using the following formula:
(§7) Combination index (CI) of Drugs 1 & 2=(IC50 of drug-1 in combination/IC50 of drug-1 individually)+(IC50 of drug-2 in combination/IC50 of drug-2 individually).

Data set [5] deals with U87MG human glioma cell line. Kind of data set: MTT cell viability assay, U87MG. The data set is classed as cell-based. On the procedure:
as §1, §2, §3, §4, §5, §6, §7
In general terms: Tetrazolium assays rely on reduction of a dye to a coloured formazan, in cell work by metabolically active cells.

Data set [6] can be described thus: LC/MS of drugs and active metabolites in plasma and brain (blood brain barrier). The data set is classed as in vivo, rat. To be noted: for Detected mass in LC-MS Plasma / Detected mass in LC-MS Brain: NA = not detected. The protocol: T, M & E (Sigma Aldrich, St. Louis, USA) were dissolved in sterile water and administered intra peritoneally for 7 days (from day 21 to day 27; where the day of tumor induction is considered day 0) to a rat with the dose specified in Table-4 (TME: 50+80+150 mg/kg body weight). After 7 days of treatment (on day 28), blood (plasma) was collected and the rat was euthanized, immediately the brain tissue was collected and stored at −80° C. The brain tissue was then processed accordingly to measure active metabolites through LC/MS.
To 100 μl of plasma or brain (0.5 g crushed in 0.5 mL of sterile water), 20 μl of the working internal standard solution was added. The samples were deproteinised with acetonitrile and the supernatant (100 μl) was injected into the chromatographic system. For the brain, as described above, ciprofloxacin solution (20 μl) was added to 100 μl of crushed brain. Then, repeating the plasma sample process, 20 μl of the solution was injected into the chromatographic system.

Data set [7] has as its system human breast cancer (MDA-MB-453) cells. Kind of data set: MTT cell viability assay, MDA-MB-453. The data set is classed as cell-based. To be noted: 24 hours. On the procedure: Cell lines and culture conditions: A human breast cancer cell line MDA-MB-453 and human bone cancer cell line SaoS2 were obtained from National Centre for Cell Science (NCCS), Pune, India. The MDA-MB-453 cells were sub-cultured in Dulbecco's Modified Eagle's Medium (DMEM) supplemented with 10% FBS at 5% CO2 and 37° C. The SaoS2 cells were sub-cultured in McCoy's 5A media supplemented with 10% FBS at 5% CO2 and 37° C. […] The cells were allowed to attach 70% to the surface prior to treatment. […] Suspensions were aspirated 10 times before treatment. Cells treated with vehicle control were used as a control. Cell viability assay: MDA-MB-453 and SaoS2 cells (5×10^3 cells/ml) were seeded in 96-well plates and exposed to different individual-drug treated groups with varying concentrations (0, 20, 40, 60, 80, 100, 120, 140, 160, 180 and 200 μM) for a period of 24 hours.

The subject of data set [8] is human pancreatic cancer (PANC1) cells. In words: MTT cell viability assay, PANC1. The data set is classed as cell-based. To be noted: 24 hours. On the procedure:
Cell lines and culture conditions: A human pancreatic cancer cell line PANC1 and human colon cancer cell line HCT116 were obtained from National Centre for Cell Science (NCCS), Pune, India. The PANC1 cells were sub-cultured in Dulbecco's Modified Eagle's Medium (DMEM) supplemented with 10% FBS at 5% C02 and 37° C. The HCT116 cells were sub-cultured in McCoy's 5A media supplemented with 10% FBS at 5% CO2 and 37° C. […] The cells were allowed to attach 70% to the surface prior to treatment. […] Suspensions were aspirated 10 times before treatment. Cells treated with vehicle control were used as a control. Cell viability assay: PANC1 and HCT116 cells ([…] cells/ml) were seeded in 96-well plates and exposed to different individual-drug treated groups with varying concentrations (0, 20, 40, 60, 80, 100, 120, 140, 160, 180 and 200 μM) for a period of 24 hours. The individual-treated groups include Group I: 5 Fluorouracil (5FU)-treated PANC1 and HCT116 cells; Group II: MET-treated PANC1 and HCT116 cells; Group III: EGCG-treated PANC1 and HCT116 cells and Group IV: 5FU+[…] PANC1 and HCT116 cells.

Data set [9] relates to human hepatocellular carcinoma (HepG2) cells. In words: MTT cell viability assay, HepG2. The data set is classed as cell-based. To be noted: 24 hours. On the procedure: Cell lines and culture conditions. A human hepatocellular carcinoma (HepG2) and ovarian cancer (SKOV3) cells were obtained from National Centre for Cell Science (NCCS), Pune, India. The cells HepG2 and SKOV3 were sub-cultured in Eagle's Minimum Essential Medium (EMEM) and McCoy's 5a supplemented with 10% FBS at 5% CO2 and 37° C. […] The cells were allowed to attach 70% to the surface prior to treatment. A stock solution of all the drugs (10 mg/ml) was made in distilled H2O and diluted to the required concentrations. Suspensions were aspirated 10 times before treatment. Cells treated with vehicle control were used as a control.

[10] abbreviates: as used in the triple combination for CI.
Where [11] appears, read: triple combination TME 50+80+150 mg/kg i.p. 7 days.
Where [12] appears, read: individually treated T, M and E, i.p. 7 days.

In the case of `Cn1nnc2c(C(N)=O)ncn2c1=O` [TMZ, 3-methyl-3-oxoimidazo[5,1-d] [1,2,3,5] tetrazine-8-carboxamide], in [1], the “cytoplasmic positivity for VEGF (H-score)” value is 25.83%. Also, the “Ki67 nuclear positivity rate” value in [2] was found to be 13.14%. In addition, the “toxicity in normal HEK293T cells” value in [3] was “higher toxicity”. The IC50 in data set [4] (Rattus norvegicus, C6, individual drug, 24 hours, mean ± SD, no unit in table, test concentrations given in μM, read-out: Inhibitory Concentration at 50% (IC50) C6 Cells) came out at 72 ± 1.32 µM; in data set [5] (Homo sapiens, U-87 MG, individual drug, 24 hours, mean ± SD, no unit in table, test concentrations given in μM, read-out: Inhibitory Concentration at 50% (IC50) U87MG Cells), 77 ± 1.14 µM. For the same molecule, the “IC25 C6” value in data set [4] (setting [10]) was 31.76 µM. Also, the “IC25 U87MG” value in data set [5] (setting [10]) was 18.94 µM. Further, the “transport across the blood brain barrier, in words” value in data set [6] (administered individually and in combination) was “crossed BBB in the form of their active metabolites”. For the same molecule, the “Detected mass in LC-MS Plasma” value in [6] (setting [11]) turned out to be 198.93.

On to `COc1cccc2c1C(=O)c1c(O)c3c(c(O)c1C2=O)C[C@@](O)(C(=O)CO)C[C@@H]3O[C@H]1C[C@H](N)[C@H](O)[C@H](C)O1` [DOX, Doxorubicin], for which the “cell viability (MTT), in words” value in data set [7] is “reduction in cell viability in a dose-dependent fashion”.

For the molecule `NC(=O)c1[nH]cnc1N` [AIC, 5-amino-imidazole-4-carboxamide], in data set [6] (setting [12]), the “Detected mass in LC-MS Brain” value stood at 123.09 and the “Detected mass in LC-MS Plasma” value is on record as 127.02. Moreover, in [6] (setting [11]), the “Detected mass in LC-MS Brain” value was 123.05 and the “Detected mass in LC-MS Plasma” value turned out to be 127.02.

In the case of `O=c1[nH]cc(F)c(=O)[nH]1` [5FU, 5-Fluorouracil], the “cell viability (MTT), in words” value in [8] is reported as “reduction in cell viability in a dose-dependent fashion”.

As for `CNC(=O)c1cc(Oc2ccc(NC(=O)Nc3ccc(Cl)c(C(F)(F)F)c3)cc2)ccn1` [SOR, Sorafenib], the “cell viability (MTT), in words” value in data set [9] was “reduction in cell viability in a dose-dependent fashion”.

The values above are taken from patent publication US20250275938A1, “COMPOSITIONS AND METHODS FOR TREATMENT OF CANCER” (SCIROSBIO (FZC), priority 2022, published 2025).
